ChEMBL document CHEMBL4043165, “Synthesis, estrogen receptor binding affinity and molecular docking of pyrimidine-piperazine-chromene and -quinoline conjugates” (Bioorg Med Chem Lett, 2017)
pIC50: −log10 of the molar value.

Key:
Type in all cases: cell-based
[1] = tested on: HEK-293T; experiment: Cytotoxicity against HEK293T cells assessed as reduction in cell viability at <50 uM after 48 hrs by MTT assay; conditions: human
[2] = Modulation activity at ER in human MCF7 cells assessed as reduction in cell viability after 48 hrs by MTT assay; conditions: MCF7, 48 h
[3] = tested on: HEK-293T; experiment: Cytotoxicity against HEK293T cells assessed as reduction in cell viability after 48 hrs by MTT assay; conditions: Homo sapiens
[4] = tested on: HEK-293T; experiment: Cytotoxicity against HEK293T cells assessed as reduction in cell viability up to 50 uM after 48 hrs by MTT assay; conditions: human

| SMILES | Activity [1] | pIC50 [2] | pIC50 [3] | Activity [4] |
| --- | --- | --- | --- | --- |
| Cc1nc(Oc2ccc3c(c2)OC(N)=C(C#N)C3c2ccc(F)cc2)cc(N2CCN(CCO)CC2)n1 (stereo unspecified) | Toxic | 3.78 | 4.28 |  |
| Cc1nc(Oc2ccc3c(c2)NC(N)=C(C#N)C3c2ccccc2Cl)cc(N2CCN(CCO)CC2)n1 (stereo unspecified) | Toxic | 3.72 | 4.15 |  |
| Cc1nc(Oc2ccc3c(c2)NC(N)=C(C#N)C3c2ccccc2)cc(N2CCN(CCO)CC2)n1 (stereo unspecified) |  | 4.19 | 3.85 | Non-Toxic |
| Cc1nc(Oc2ccc3c(c2)OC(N)=C(C#N)C3c2c(Cl)cccc2Cl)cc(N2CCN(CCO)CC2)n1 (stereo unspecified) | Toxic | 3.87 | 4.29 |  |
| Cc1nc(Oc2ccc3c(c2)OC(N)=C(C#N)C3c2ccc(Br)cc2)cc(N2CCN(CCO)CC2)n1 (stereo unspecified) | Toxic | 4.04 | 4.72 |  |
| Cc1nc(Oc2ccc3c(c2)OC(N)=C(C#N)C3c2ccccc2)cc(N2CCN(CCO)CC2)n1 (stereo unspecified) |  | 4.04 | < 3.70 | Non-Toxic |
| Cc1ccc(C2C(C#N)=C(N)Nc3cc(Oc4cc(N5CCN(CCO)CC5)nc(C)n4)ccc32)cc1 (stereo unspecified) |  | 4.32 | 3.85 | Non-Toxic |
| Cc1nc(Oc2ccc3c(c2)NC(N)=C(C#N)C3c2ccc(F)cc2)cc(N2CCN(CCO)CC2)n1 (stereo unspecified) | Toxic | 4.32 | 4.14 |  |
| COc1ccc(C2C(C#N)=C(N)Oc3cc(Oc4cc(N5CCN(CCO)CC5)nc(C)n4)ccc32)cc1 (stereo unspecified) | Toxic | 3.98 | 4.26 |  |
| COc1cc(/C=C/C(=O)CC(=O)/C=C/c2ccc(O)c(OC)c2)ccc1O [CURCUMIN] |  |  | < 3.40 |  |
| Cc1nc(Oc2ccc3c(c2)NC(N)=C(C#N)C3c2ccccc2C)cc(N2CCN(CCO)CC2)n1 (stereo unspecified) | Toxic | 3.70 | 4.24 |  |
| Cc1nc(Oc2ccc3c(c2)NC(N)=C(C#N)C3c2ccc(Br)cc2)cc(N2CCN(CCO)CC2)n1 (stereo unspecified) | Toxic | 3.71 | 4.21 |  |
| Cc1nc(Oc2ccc3c(c2)OC(N)=C(C#N)C3c2ccccc2Cl)cc(N2CCN(CCO)CC2)n1 (stereo unspecified) | Toxic | 3.92 | 4.10 |  |
| Cc1nc(Oc2ccc3c(c2)OC(N)=C(C#N)C3c2ccc([N+](=O)[O-])cc2)cc(N2CCN(CCO)CC2)n1 (stereo unspecified) |  | 4.52 | 3.98 | Non-Toxic |
| COc1ccc(C2C(C#N)=C(N)Nc3cc(Oc4cc(N5CCN(CCO)CC5)nc(C)n4)ccc32)cc1 (stereo unspecified) | Toxic | 4.92 | 4.21 |  |
| Cc1nc(Oc2ccc3c(c2)OC(N)=C(C#N)C3c2ccccc2C)cc(N2CCN(CCO)CC2)n1 (stereo unspecified) | Toxic | 4.21 | 4.25 |  |
| Cc1nc(Oc2ccc3c(c2)OC(N)=C(C#N)C3c2ccc(Cl)cc2)cc(N2CCN(CCO)CC2)n1 (stereo unspecified) | Toxic | 4.14 | 4.74 |  |
| Cc1nc(Oc2ccc3c(c2)NC(N)=C(C#N)C3c2c(Cl)cccc2Cl)cc(N2CCN(CCO)CC2)n1 (stereo unspecified) | Toxic | 3.99 | 4.21 |  |
| Cc1ccc(C2C(C#N)=C(N)Oc3cc(Oc4cc(N5CCN(CCO)CC5)nc(C)n4)ccc32)cc1 (stereo unspecified) |  | 4.80 | < 3.70 | Non-Toxic |
| Cc1nc(Oc2ccc3c(c2)NC(N)=C(C#N)C3c2ccc(Cl)cc2)cc(N2CCN(CCO)CC2)n1 (stereo unspecified) | Toxic | 3.77 | 4.02 |  |
| COc1cccc(C2C(C#N)=C(N)Nc3cc(Oc4cc(N5CCN(CCO)CC5)nc(C)n4)ccc32)c1 (stereo unspecified) | Toxic | 3.78 | 4.41 |  |
